Test results: patent publication US8148531B2 (Chroma Therapeutics Ltd., priority 2005, dated 2012)

Experiments:
[1] = target: Aurora-B (Homo sapiens, UniProt Q96GD4); assay: Aurora-B enzyme assay (identical protocol as Aurora-A); assay type: biochemical; conditions: IC50 range class; read-out: Inhibitor Activity vs Aurora-B
Protocol: The ability of compounds to inhibit Aurora-A activity was measured using a simple microplate assay for Aurora-A activity, also suitable for high-throughput screening. In brief, γ-^33P-ATP and Aurora-A were incubated in a myelin basic protein (MBP)-coated Flashplate® to generate a scintillation signal. The plates were formatted to contain the inhibitor, controls, positive control (staurosporin) and blanks. After incubation at 37° C. for 1 hour and a subsequent wash procedure, the plates were read on a TopCount-NXT™.
IC50 values were determined by non-linear regression analysis, after fitting the data point results to the equation for sigmoidal dose response with variable slope (% activity against log concentration of compound), using Graphpad Prism software.
The Aurora-B enzyme assay follows the identical protocol as Aurora-A.

[2] = test system: HCT 116 cell line; assay: Cell inhibition assay (SRB cell viability), HCT 116; assay type: cell-based; conditions: Homo sapiens, IC50 range class, 72 h, read-out: Inhibitor Activity vs HCT 116 cell line
Protocol: (§1) The corresponding cancer cell lines (U937, HCT 116 and HUT) growing in log phase were harvested and seeded at 1000 cells/well (200 ul final volume) into 96-well tissue culture plates. Following 24 h of cell growth cells were treated with compounds (final concentration of 20 uM). Plates were then re-incubated for a further 72 h before a sulphorhodamine B (SRB) cell viability assay was conducted according to Skehan 1990 J Natl Canc Inst 82, 1107-1112.
(§2) Data were expressed as a percentage inhibition of the control, measured in the absence of inhibitor, as follows: — % inhibition=100−((S^i/S^o)×100) where S^i is the signal in the presence of inhibitor and S^o is the signal in the presence of DMSO.
(§3) IC50 values were determined by non-linear regression analysis, after fitting the results of eight data points to the equation for sigmoidal dose response with variable slope (% activity against log concentration of compound), using Graphpad Prism software.

[3] = test system: HUT cell line; assay: Cell inhibition assay (SRB cell viability), HUT; assay type: cell-based; conditions: IC50 range class, 72 h, read-out: Inhibitor Activity vs HUT cell line
Protocol: as §1, §2, §3

[4] = test system: U937 cell line; assay: Cell inhibition assay (SRB cell viability), U937; assay type: cell-based; conditions: Homo sapiens, U-937, IC50 range class, 72 h, read-out: Inhibitor Activity vs U937 cell line
Protocol: as §1, §2, §3

Aurora-B, sequence (Q96GD4 whole entry): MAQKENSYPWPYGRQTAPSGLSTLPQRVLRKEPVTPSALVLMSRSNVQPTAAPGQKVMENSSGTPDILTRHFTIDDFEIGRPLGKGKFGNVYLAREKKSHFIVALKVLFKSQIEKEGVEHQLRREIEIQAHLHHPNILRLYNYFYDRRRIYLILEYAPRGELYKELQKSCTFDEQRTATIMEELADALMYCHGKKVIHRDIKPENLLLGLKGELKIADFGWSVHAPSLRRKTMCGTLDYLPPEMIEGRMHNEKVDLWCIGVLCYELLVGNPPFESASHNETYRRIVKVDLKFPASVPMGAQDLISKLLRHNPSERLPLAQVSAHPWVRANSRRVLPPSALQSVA

| SMILES | IC50 [1] | IC50 [2] | IC50 [3] | IC50 [4] |
| --- | --- | --- | --- | --- |
| COc1cc2c(Nc3cnn(CC(=O)Nc4ccccc4)c3)ccnc2cc1OCC[C@H](N)C(=O)O [Example 23, (S)-2-Amino-4-[6-methoxy-4-(1-phenylcarbamoylmethyl-1H-pyrazol-4-ylamino)-quinolin-7-yloxy]-butyric acid] | > 5000 nM | – | – | – |
| COc1cc2nccc(Oc3ccc(NC(=O)c4ccccc4)cc3)c2cc1OCC[C@H](N)C(=O)OC1CCCC1 [Example 35, (S)-2-Amino-4-[4-(4-benzoylamino-phenoxy)-7-methoxy-quinolin-6-yloxy]-butyric acid cyclopentyl ester] | > 5000 nM | 1000 to 5000 nM | 1000 to 5000 nM | < 1000 nM |
| COc1cc2c(Oc3ccc(NC(=O)c4ccccc4)cc3)ccnc2cc1OCC[C@H](NC(C)=O)C(=O)OC1CCCC1 [Example 42, (S)-2-Acetylamino-4-[4-(4-benzoylamino-phenoxy)-6-methoxy-quinolin-7-yloxy]-butyric acid cyclopentyl ester] | 2000 to 5000 nM | < 1000 nM | < 1000 nM | < 1000 nM |
| COc1cc2c(Oc3ccc(NC(=O)c4ccc(C(F)(F)F)cc4)cc3)ccnc2cc1OCC[C@H](N)C(=O)OC1CCCC1 [Example 53, (S)-2-Amino-4-{6-methoxy-4-[4-(4-trifluoromethyl-benzoylamino)-phenoxy]-quinolin-7-yloxy}-butyric acid cyclopentyl ester] | < 2000 nM | < 1000 nM | < 1000 nM | < 1000 nM |
| COc1cc2c(Oc3ccc(NC(=O)c4cccc(F)c4)cc3)ccnc2cc1OCC[C@H](N)C(=O)O [Example 56, (S)-2-Amino-4-{4-[4-(3-fluoro-benzoylamino)-phenoxy]-6-methoxy-quinolin-7-yloxy}-butyric acid] | < 2000 nM | – | – | – |
| COc1ccc(C(=O)Nc2ccc(Oc3ccnc4cc(OCC[C@H](N)C(=O)OC5CCCC5)c(OC)cc34)cc2)cc1 [Example 57, (S)-2-Amino-4-{6-methoxy-4-[4-(4-methoxy-benzoylamino)-phenoxy]-quinolin-7-yloxy}-butyric acid cyclopentyl ester] | 2000 to 5000 nM | 1000 to 5000 nM | 1000 to 5000 nM | < 1000 nM |
| COc1cc2c(Oc3ccc(NC(=O)C4CC4)cc3)ccnc2cc1OCC[C@H](N)C(=O)OC1CCCC1 [Example 59, (S)-2-Amino-4-{4-[4-(cyclopropanecarbonyl-amino)-phenoxy]-6-methoxy-quinolin-7-yloxy}-butyric acid cyclopentyl ester] | > 5000 nM | 1000 to 5000 nM | 1000 to 5000 nM | < 1000 nM |
| COc1cc2c(Oc3ccc(NC(=O)c4ccc(OC(F)(F)F)cc4)cc3)ccnc2cc1OCC[C@H](N)C(=O)O [Example 71, (S)-2-Amino-4-{6-methoxy-4-[4-(4-trifluoromethoxy-benzoylamino)-phenoxy]-quinolin-7-yloxy}-butyric acid] | 2000 to 5000 nM | – | – | – |
| COc1cc2c(Oc3ccc(NS(=O)(=O)c4ccccc4)cc3)ccnc2cc1OCC[C@H](N)C(=O)O [Example 74, (S)-2-Amino-4-[4-(4-benzenesulfonylamino-phenoxy)-6-methoxy-quinolin-7-yloxy]-butyric acid] | 2000 to 5000 nM | – | – | – |
| COc1cc2c(Oc3ccc(C(=O)Nc4ccccc4)cc3)ccnc2cc1OCC[C@H](N)C(=O)OC1CCCC1 [Example 77, (S)-2-Amino-4-[6-methoxy-4-(4-phenylcarbamoyl-phenoxy)-quinolin-7-yloxy]-butyric acid cyclopentyl ester] | > 5000 nM | > 5000 nM | 1000 to 5000 nM | 1000 to 5000 nM |
| COc1cc2c(Oc3ccc(NC(=O)Nc4ccc(C(F)(F)F)cc4)cc3F)ccnc2cc1OCCC[C@@H](N)C(=O)OC1CCCC1 [Example 123, (R)-2-Amino-5-(4-{2-fluoro-4-[3-(4-trifluoromethyl-phenyl)-ureido]-phenoxy}-6-methoxy-quinolin-7-yloxy)-pentanoic acid cyclopentyl ester] | – | < 1000 nM | < 1000 nM | < 1000 nM |
| COc1cc2c(Oc3ccc(NC(=O)c4ccc(C(F)(F)F)cc4)cc3F)ccnc2cc1OCC[C@H](N)C(=O)OC1CCCC1 [Example 127, (S)-2-Amino-4-{4-[2-fluoro-4-(4-trifluoromethyl-benzoylamino)-phenoxy]-6-methoxy-quinolin-7-yloxy}-butyric acid cyclopentyl ester] | – | < 1000 nM | < 1000 nM | < 1000 nM |
| COc1cc2c(Oc3ccc(NC(=O)c4ccccc4)cc3F)ccnc2cc1OCC[C@H](N)C(=O)OC1CCCC1 [Example 128, (S)-2-Amino-4-[4-(4-benzoylamino-2-fluoro-phenoxy)-6-methoxy-quinolin-7-yloxy]-butyric acid cyclopentyl ester] | 2000 to 5000 nM | < 1000 nM | < 1000 nM | < 1000 nM |
| COc1cc2c(Oc3ccc(NC(=O)c4ccccc4)c(F)c3)ccnc2cc1OCC[C@H](N)C(=O)OC1CCCC1 [Example 130, (S)-2-Amino-4-[4-(4-benzoylamino-3-fluoro-phenoxy)-6-methoxy-quinolin-7-yloxy]-butyric acid cyclopentyl ester] | – | < 1000 nM | < 1000 nM | < 1000 nM |
| COc1cc2c(Oc3ccc(NC(=O)c4ccccc4)cc3OC)ccnc2cc1OCC[C@H](N)C(=O)OC1CCCC1 [Example 132, (S)-2-Amino-4-[4-(4-benzoylamino-2-methoxy-phenoxy)-6-methoxy-quinolin-7-yloxy]-butyric acid cyclopentyl ester] | – | 1000 to 5000 nM | 1000 to 5000 nM | < 1000 nM |
| COc1cc2c(Oc3ccc(NC(=O)c4ccccc4)cn3)ccnc2cc1OCC[C@H](N)C(=O)OC1CCCC1 [Example 134] | – | < 1000 nM | < 1000 nM | < 1000 nM |
| COc1cc2c(Oc3ccc(NC(=O)c4ccccc4)cc3)ccnc2cc1OC[C@@H]1CCCN1CC[C@H](N)C(=O)OC1CCCC1 [Example 135, (S)-2-Amino-4-{(S)-2-[4-(4-benzoylamino-phenoxy)-6-methoxy-quinolin-7-yloxymethyl]-pyrrolidin-1-yl}-butyric acid cyclopentyl ester] | – | 1000 to 5000 nM | 1000 to 5000 nM | < 1000 nM |
| COc1cc2c(Oc3ccc(NC(=O)c4ccccc4)cc3)ccnc2cc1OCC1CCN(CC[C@H](N)C(=O)OC2CCCC2)CC1 [Example 136, (S)-2-Amino-4-{4-[4-(4-benzoylamino-phenoxy)-6-methoxy-quinolin-7-yloxymethyl]-piperidin-1-yl}-butyric acid cyclopentyl ester] | – | < 1000 nM | < 1000 nM | < 1000 nM |
| COc1cc2c(Oc3ccc(NC(=O)c4ccccc4)cc3)ccnc2cc1OC1CCN(CC[C@H](N)C(=O)OC2CCCC2)C1 (stereo partly drawn) [Example 137, (S)-2-Amino-4-{3-[4-(4-benzoylamino-phenoxy)-6-methoxy-quinolin-7-yloxy]-pyrrolidin-1-yl}-butyric acid cyclopentyl ester] | – | 1000 to 5000 nM | < 1000 nM | < 1000 nM |
| COc1cc2c(Oc3ccc(NCc4ccccc4)cc3)ccnc2cc1OCC[C@H](N)C(=O)OC1CCCC1 [Example 138, (S)-2-Amino-4-[4-(4-benzylamino-phenoxy)-6-methoxy-quinolin-7-yloxy]-butyric acid cyclopentyl ester] | – | 1000 to 5000 nM | < 1000 nM | < 1000 nM |
| COc1cc2c(Oc3ccc(CC(=O)c4ccccc4)cc3)ccnc2cc1OCC[C@H](N)C(=O)OC1CCCC1 [Example 140, (S)-2-Amino-4-{6-methoxy-4-[4-(2-oxo-2-phenyl-ethyl)-phenoxy]-quinolin-7-yloxy}-butyric acid cyclopentyl ester] | – | 1000 to 5000 nM | < 1000 nM | < 1000 nM |
| COc1cc2c(Oc3ccc(CNC(=O)c4ccccc4)cc3)ccnc2cc1OCC[C@H](N)C(=O)OC1CCCC1 [Example 141, (S)-2-Amino-4-{4-[4-(benzoylamino-methyl)-phenoxy]-6-methoxy-quinolin-7-yloxy}-butyric acid cyclopentyl ester] | – | < 1000 nM | < 1000 nM | < 1000 nM |
| COc1cc2c(Nc3cc(C)[nH]n3)nc(Sc3ccccc3)nc2cc1OCC[C@H](N)C(=O)OC1CCCC1 [Example 143, (S)-2-Amino-4-[6-methoxy-4-(5-methyl-1H-pyrazol-3-ylamino)-2-phenylsulfanyl-quinazolin-7-yloxy]-butyric acid cyclopentyl ester] | – | > 5000 nM | 1000 to 5000 nM | 1000 to 5000 nM |
